These results are taken from patent publication US11028141B2, “Therapeutic for the prevention and/or treatment of weight gain and/or diabetes” (priority 2016, dated 2021).

One experiment has as its system GLUTag cells. In words: GLP-1 secretion by GLUTag cells, measured by ELISA. In kind it is cell-based, murine. The conditions noted are these: cell-free supernatants or PMA positive control on GLUTag cells. Here is the method:
S. epidermidis has GLP-1 stimulatory activity in vitro in NCI H716 and GLUTag cells—In order to identify bacterial strains capable of eliciting GLP-1 secretion, 1500 microbial supernatants were screened using human NCI H716 cells. […] Following 16S rRNA sequencing, all 45 stimulatory strains came back as strains of S. epidermidis. Incubation of cell-free supernatants from two of the stimulatory strains with the highest activity, S. epidermidis JA1 and JA8 on NCI H716 cells stimulated a release of 3155±276 pM and 2518±141 pM GLP-1, respectively (FIG. 6A). GM17 media control and the PMA positive control had GLP-1 levels of 565±188 pM and 1767±120 pM GLP-1, respectively, indicating an approximate 2-fold increase in activity by JA1 over the positive PMA control. It was confirmed that JA1 and JA8 could stimulate GLP-1 secretion in a second model, murine GLUTag cells. S. epidermidis JA1 and JA8 led to the release of 1123±107 pM and 984±40 pM GLP-1, respectively (FIG. 6B). The GM17 media control and the PMA positive control had GLP-1 levels of 327±35 pM and 305±14 pM, respectively, indicating no real stimulation by PMA. […] None of the S. epidermidis bacterial cell-free supernatants had detectable toxicity on NCI H716 (FIG. 6C) and GLUTag (FIG. 6D) cells, as determined by a PrestoBlue resazurin-based analysis which measures aerobic respiration as an indicator of cell viability.
(ELISA stands for enzyme-linked immunosorbent assay.)

For another experiment, the system named is NCI H716 cells. It is filed as cell-based, human.

Description for NCI H716 cells: Identifying the microbial-derived compound responsible for GLP-1 stimulatory activity—To narrow down the bacterial component responsible for GLP-1 secretion in vitro, and for metabolic disease marker modulation in vivo, size fractionation studies were performed using Amicon centrifuge filtration tubes and exposure of the fractions on NCI H716 cells.
To further identify the component responsible for the activity, bacterial supernatants were analyzed using a Thermo Orbitrap Fusion mass spectrometer equipped with an Easy Nanospray HPLC system.

In the case of `CCCCCCCCCCCCCC(=O)O[C@@H]1[C@@H](C)[C@@]2(O)[C@@H](C=C(CO)C[C@]3(O)C(=O)C(C)=C[C@@H]23)[C@@H]2C(C)(C)[C@]12OC(C)=O` [PMA, reference compound], the entries for the “release of GLP-1” value in the experiment on GLUTag cells and in the experiment with NCI H716 cells (cell-free supernatants or PMA positive control on NCI H716 cells) were 305 ± 14 pM and 1767 ± 120 pM, respectively.

Regarding MAADIISTIGDLVKWIIDTVNKFTKK [24_25insT], the “GLP-1 stimulatory activity (GLP-1)” value in the experiment on NCI H716 cells (20 μM peptide, NCI H716 cells) came to 1283.5 ± 798 pM. The “GLP-1 stimulatory activity of synthesized peptides” value with NCI H716 cells (varying concentrations, NCI H716 cells) is given as “activity”.
